Data on five molecules can be found in patent publication US20240190896A1, “SMTP-7 DERIVATIVE AND USE THEREOF” (Shanghai Senhui Medicine Co., Ltd., priority 2021, published 2024).

The nature of data set [1]: Test Example 2: Pharmacokinetic study in rats (intravenous). The data set is classed as in vivo, SD rats. Conditions: 5 mg/kg intravenous administration. The method, then: After they were well mixed by vortexing and ultrasonication, a 1 mg/mL clear solution was obtained for later use.
SD Rats, at the Age of 6-8 Weeks, Weighing about 180-240 g.
The pharmacokinetic parameters such as AUC(0−t), AUC(0−∞), T1/2, MRT, Cmax and Tmax were measured in rats according to the method of Test Example 1.

Data set [2] is described as follows: Test Example 1: Pharmacokinetic study in rats (intravenous). The data set is classed as in vivo. To be noted: rat, SD rats, 5 mg/kg intravenous injection, plasma; for MRT last: read-out: MRT(0-t). The protocol: A proper amount of each of SMTP-7 and compound 1 was weighed out, and 2% (final volume) DMSO and 98% (final volume) normal saline were added. After they were well mixed by vortexing and ultrasonication, a 1 mg/mL clear solution was obtained for later use.
SD Rats, at the Age of 6-8 Weeks, Weighing about 180-220 g.
About 0.20 mL of blood was collected for each sample via the jugular vein or other suitable is routes, and sodium heparin was used as the anticoagulant. The blood was placed on ice immediately after the collection. The collection was performed at a total of 10 time points: before administration, and 5 min, 0.25 h, 0.5 h, 1 h, 2 h, 4 h, 6 h, 10 h and 24 h after administration. The collected blood samples were placed in heparin anticoagulant blood collection tubes and centrifuged at 6800 g at 2-8° C. for 6 min to separate plasma. The plasma samples were stored in a freezer at −80° C. before analysis.
The plasma concentration of each test compound was determined. The analysis of quality control samples was performed while the samples were analyzed, and more than 66.7% of the quality control samples were required to have an accuracy of 80-120%.
When plasma drug concentration-time curves were plotted, BLQ was recorded as 0. When the pharmacokinetic parameters were calculated, the concentration before administration was calculated as 0; BLQ before Cmax (including “No peak”) was calculated as 0; and BLQ that occurs after Cmax (including “No peak”) was excluded from the calculation. The following pharmacokinetic parameters were calculated from the plasma concentration data of different time points using the non-compartmental analysis method of Phoenix WinNonlin 7.0 software: AUC(0−t), AUC(0−∞), T1/2, MRT, Cmax, Tmax, etc.

For the molecule `[2H]C([2H])(CCN1Cc2c(cc(O)c3c2O[C@@](C)(CC/C=C(\C)CCC=C(C)C)[C@@H](O)C3)C1=O)[C@@H](C(=O)O)N1Cc2c(cc(O)c3c2O[C@@](C)(CC/C=C(\C)CCC=C(C)C)[C@@H](O)C3)C1=O` [Compound 3, β-Deutero SMTP-7], in data set [1], the “AUC (comparison in words)” value is “did not greatly differ” and the “T1/2 (comparison in words)” value is recorded as “did not greatly differ”.

For the molecule `[2H][C@](CCCN1Cc2c(cc(O)c3c2O[C@@](C)(CC/C=C(\C)CCC=C(C)C)[C@@H](O)C3)C1=O)(C(=O)O)N1Cc2c(cc(O)c3c2O[C@@](C)(CC/C=C(\C)CCC=C(C)C)[C@@H](O)C3)C1=O` [Compound 2, α-Deutero SMTP-7], in data set [1], the “AUC (comparison in words)” value is listed as “did not greatly differ” and the “T1/2 (comparison in words)” value is reported as “did not greatly differ”.

For `CC(C)=CCC/C(C)=C/CC[C@]1(C)Oc2c(c(O)cc3c2CN(CCC[C@@H](C(=O)O)N2Cc4c(cc(O)c5c4O[C@@](C)(CC/C=C(\C)CCC=C(C)C)[C@@H](O)C5)C2=O)C3=O)C[C@@H]1O` [SMTP-7, Stachybotrys microspore triprenyl phenol-7], in data set [1], the “AUC (comparison in words)” value was “did not greatly differ” and the “T1/2 (comparison in words)” value is “did not greatly differ”. Besides, in data set [2], the area under the curve AUC(0-t) was 8010 ng·h/mL, the highest level (Cmax) was 26300 ng/mL, the Tmax was determined as 4.8 min and the half-life was 6.69 ± 0.178 h. In data set [2], the MRT last was 0.465 ± 0.08 h.

For the molecule `[2H]C([2H])(C[C@@H](C(=O)O)N1Cc2c(cc(O)c3c2O[C@@](C)(CC/C=C(\C)CCC=C(C)C)[C@@H](O)C3)C1=O)CN1Cc2c(cc(O)c3c2O[C@@](C)(CC/C=C(\C)CCC=C(C)C)[C@@H](O)C3)C1=O` [Compound 4, γ-Deutero SMTP-7], in data set [1], the “AUC (comparison in words)” value is given as “lower AUC than SMTP-7” and the “T1/2 (comparison in words)” value is “lower T1/2”.

Turning to `[2H]C([2H])(CC[C@@H](C(=O)O)N1Cc2c(cc(O)c3c2O[C@@](C)(CC/C=C(\C)CCC=C(C)C)[C@@H](O)C3)C1=O)N1Cc2c(cc(O)c3c2O[C@@](C)(CC/C=C(\C)CCC=C(C)C)[C@@H](O)C3)C1=O` [Compound 1, δ-Deutero SMTP-7], in data set [2], the AUC(0-t) was 11300 ng·h/mL, the peak concentration (Cmax) was 19100 ng/mL, the time to peak (Tmax) was 4.8 min and the half-life is 8.94 ± 0.61 h. Also, in data set [2], the MRT last worked out at 3.06 ± 0.25 h.

A word on the AUC(0-t): it is exposure summed from dosing to a finite time, without extrapolation to infinity. A word on the Cmax: it is the highest concentration seen after dosing. By Tmax is commonly meant the time at which the peak concentration occurs. Usually half-life stands for how long it takes for the measured level to halve. A lower half-life goes with rapid decline.
